Measured values published in paper PMC7395048 (Archives of Toxicology, 2020).
“Also recorded” adds a separate entry of the source. Marks after values point to notes of the source that are not given here.

Legend:
[1] = cited from earlier work
hiPSC-CM = hiPSC-CM MEA assay (FPDc, extracellular field potential); conditions: for cytotoxicity at the test concentrations: up to 30 µM, data not shown
Experimental: Briefly, each well of the MEA chips was precoated with 50 μg/ml fibronectin for 3 h in the incubator at 37 °C with 5% CO2. The fibronectin coating solution was aspirated before seeding. Cells were thawed in the incubator at 37 °C for exactly 4 min and carefully transferred to a 50-ml tube. The original vial was rinsed with serum free Pluricyte® Cardiomyocyte Medium and added drop-wise to the tube containing the cardiomyocytes. […] Then, the supernatant was removed and medium was drop-wisely added to reach the aimed concentration of cells in the suspension (10^4 cells/μl). 2-μl cell suspension per well was placed on the six-well MEA chips in a density of 10^4 cells/μl. After 3-h incubation (37 °C, 5% CO2), 200 μl of medium was filled into each well of the MEA chips which were subsequently incubated at 37 °C with 5% CO2 and refreshed with medium every 2 days.
At 7–8 days after seeding, MEA chips were placed on the headstage of a MEA2100-system (MCS GmbH) integrated with the chamber providing a stable atmosphere (37 °C, 5% CO2) to record the extracellular field potential (Fig. 2) of spontaneous beating hiPSC-CM. After an equilibration time of 20 min, half of the medium (100 μl) in each well was replaced by culture medium containing 0.2% (v/v) DMSO to reach a final concentration of 0.1% (v/v) DMSO, which was used as baseline condition. […] At each concentration, the extracellular field potential was recorded for 1 min after 10-min exposure. […] Same test concentrations were chosen for EDDP and EMDP, which enables definition of concentration-dependent curves for EDDP and EMDP that allow potency comparison.
One well of 0.1% (v/v) DMSO on each MEA chip was used as the vehicle control well and run at the same time as the compound exposure wells to correct for time- and DMSO-dependent effects on the field potential. A detailed exposure scheme can be found in Fig. S1. Data were collected using Cardio 2D software (MCS GmbH) with a sample frequency of 10 kHz and a 0.1–3.5-kHz band-pass filter.
Field potential duration (FPD) was defined as duration between the beginning of the sodium spike and the repolarizing peak (Fig. 2). RR-intervals were defined as the duration between two depolarization peaks (Fig. 2). The FPD and RR-interval were measured as the average of at least 30 beats from 1-min recording at each concentration of the test compound.
In this formula, the FPD and RR-interval are expressed in seconds. Data were collected from at least three independent experiments (4–8 wells, 26–38 electrodes), using a new vial of cells (all from the same batch) at each independent experiment. […] The concentrations inducing irregularities in the field potential trace (Fig. S2) were also noted.
The concentration–response curves were plotted with GraphPad Prism 5.0 using the four-parameters logistic fit (GraphPad Software Inc., San Diego, USA). Each data point is presented as the mean value of at least three independent experiments ± standard deviation (SD). Statistical significance of the changes in response of cells exposed to the compound compared to the solvent control was analyzed by one-way ANOVA followed by post Dunnett test. Values of p < 0.05 were regarded as statistically significant (p < 0.05: *, p < 0.01: ** and p < 0.001: ***). Statistical analysis was performed by GraphPad Prism 5.0 (GraphPad Software Inc.).

hERG channels = conditions: ref Eap et al. [2007], cited from earlier work
[2] = RED assay, unbound fraction in pooled human plasma
Experimental: (§1) Then, 25 µl of post-dialysis samples were collected from the sample chambers and transferred to test sample tubes followed by an addition of 25 µl PBS. Equal volumes of post-dialysis samples collected from the buffer chamber which were then mixed with 25 µl of in vitro medium or human plasma in the buffer sample tubes. Then, both samples were precipitated using 300-µl cold acetonitrile/water (90/10 v/v). The samples were put on ice for 30 min followed by centrifugation for 30 min at 15,000g. Then, supernatants were collected for UPLC–PDA analysis.
(§2) The measurements were performed in triplicate in two independent experiments.

[3] = In vitro incubations with pooled human liver microsomes; conditions: EDDP as substrate, 1000 µM
Experimental: The test concentrations were chosen to enable adequate analysis of Michaelis–Menten kinetics. After one-min pre-incubation of this solution at 37 °C, the reactions were initiated by addition of human liver microsomes giving a final concentration of 0.5 mg/ml microsomal protein and incubations were performed in a shaking water bath at 37 °C for 40 min. Control incubations were performed in the absence of NADPH which was replaced with Tris–HCl. The reactions were terminated by addition of 40-µl ice-cold acetonitrile. Samples were kept on ice for at least 20 min and then centrifuged at 18,000g for 5 min at 4 °C to precipitate microsomal proteins.
Vmax and Km were obtained by fitting the data to Eq. (2) in GraphPad Prism 5.0 (GraphPad Software Inc.). Data were collected from three independent experiments and each data point is presented as the mean value ± SD.

[4] = ref Foster [2001]; cited from earlier work
[5] = set-up: method as in Hsu et al. ([2013]); conditions: subjects on methadone maintenance treatment; ref Hsu et al. ([2013]); cited from earlier work
[6] = RED assay, unbound fraction in in vitro hiPSC-CM MEA assay medium; conditions: in vitro hiPSC-CM MEA assay medium (serum-free)
Experimental: as §1, §2

**Q.** For `CCC1=NC(C)CC1(c1ccccc1)c1ccccc1` (stereo not drawn) [EMDP, 2-ethyl-5-methyl-3,3-diphenylpyrroline], which “in vivo total plasma concentration of EMDP” value ([1]; after clinical relevant dosing of methadone, ref Alburges et al. [1996]) is on record?
**A.** The value was “less than 0.04 µM”.

**Q.** What about the “concentration shortening the FPDc by 20% (BMC20 for decreasing FPDc)” value (hiPSC-CM; cumulative addition, 10-min exposure) of the same compound?
**A.** The value was 3.8 µM.

**Q.** And the “concentration causing beating arrest in certain wells” value (hiPSC-CM; in certain wells)?
**A.** Its value is 30 µM.

**Q.** And the “arrhythmia-type waveforms / FPDc prolongation” value (hiPSC-CM; test range 0.1-30 µM)?
**A.** Its value is “without inducing arrhythmia-type waveforms; also recorded: Neither FPDc prolongation nor arrhythmia-type waveforms were observed”.

**Q.** What about the “cytotoxicity at the test concentrations” value (hiPSC-CM) of the same compound?
**A.** Its value is “no cytotoxicity was observed”.

**Q.** And the hERG channel inhibition (hERG channels)?
**A.** Its hERG channel inhibition is “not inhibit hERG channels”.

**Q.** With `CC=C1N(C)C(C)CC1(c1ccccc1)c1ccccc1` (stereo not drawn) [EDDP, 2-ethylidene-1,5-dimethyl-3,3-diphenylpyrrolidine] as the compound, how does the fraction unbound at 5 h, 150 µM [2] read?
**A.** Its fraction unbound at 5 h, 150 µM is 0.3 ± 0.015.

**Q.** And the “free blood Cmax of EDDP” value ([1]; oral methadone 57.5 mg/day, estimated from reported EDDP data, ref De Vos et al. ([1995]))?
**A.** The value was 0.05 µM.

**Q.** What about the “BMC20, prolongation of FPDc” value (hiPSC-CM; 20% change in FPDc over control, cumulative addition, 10-min exposure) of the same compound?
**A.** The value was 2.3 µM.

**Q.** And the “unbound BMC20” value (hiPSC-CM; BMC20 corrected for unbound fraction in medium)?
**A.** Its value is 2.07 µM.

**Q.** What about the “concentration at which cessation of beating was observed” value (hiPSC-CM; human, 10 min) of the same compound?
**A.** The value was 30 µM.

**Q.** And the “concentration from which arrhythmia-like waveforms were induced” value (hiPSC-CM; tested up to 30 µM)?
**A.** The value was at least 3 µM.

**Q.** What about the “cytotoxicity at the test concentrations” value (hiPSC-CM) of the same compound?
**A.** The value was “no cytotoxicity was observed”.

**Q.** What about the “EMDP formation from EDDP” value [3] of the same compound?
**A.** Its value is “formation of EMDP was neither detectable”.

**Q.** What about the “recovery of EDDP in feces” value [4] of the same compound?
**A.** The value was “up to 39%”.

**Q.** And the “BPr (blood/plasma ratio)” value [5]?
**A.** The value was 0.87^c.

**Q.** What about the fraction unbound at 5 h, 150 µM [6] of the same compound?
**A.** Its fraction unbound at 5 h, 150 µM is 0.9 ± 0.072.

**Q.** What about the hERG channel block (hERG channels; Katchman et al. [2002]) of the same compound?
**A.** Its hERG channel block is “weaker hERG channel blocker compared to methadone”.
